Drawing on PMC7876696 (ACS Omega, 2021), this text covers Kd for 1 compound.

The target of the experiment is T1, Hup (histone-like DNA-binding protein of H. pylori) (Helicobacter pylori, UniProt O25506).
T1 sequence (O25506 1-94): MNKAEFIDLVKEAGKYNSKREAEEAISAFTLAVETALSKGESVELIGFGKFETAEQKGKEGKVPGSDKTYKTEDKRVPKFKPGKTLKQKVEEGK
The experiment is described as follows: ligand-observed 1H NMR titration.

SMILES strings stand for the structures.

Take `O=C(O[C@@H]1Cc2c(O)cc(O)cc2O[C@@H]1c1cc(O)c(O)c(O)c1)c1cc(O)c(O)c(O)c1` [EGCG]: the Kd – broadly, the constant that tells how readily two partners part at equilibrium – stood at 3.29 ± 0.42 µM.
